The subject of test [1] is acute lymphoblastic leukemia cells CCRF-CEM (K-RasG12D). The test can be described thus: Cell growth inhibition, suspension cells CCRF-CEM. Type of test: cell-based. The following applies: Homo sapiens, 1 μM, 72 hours, read-out: CCRF-CEM (KRasG12D) % inhibition at 1 μM. In outline:
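Suspension cells, 2 to 4×10^4 per well, cultured with compound in medium with 0.5% FBS (1% DMSO final) for 72 h at 37° C, 5% CO2. Viable cells counted with Cell Counting Reagent; inhibition calculated relative to controls.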

Test [2] concerns Vemurafenib-resistant malignant melanoma cells HT 144R (BRafV600E). The test can be described thus: Cell growth inhibition, drug-resistant malignant melanoma HT144R. Type of test: cell-based. Particulars: Homo sapiens, in the presence of 1 μM PLX (Vemurafenib), 72 hours. Here is the method:
(§1) The human malignant melanoma cell lines A375 and HT 144, each having BRafV600E mutation, were cultured in a medium containing 10% FBS at 37° C. in the presence of 5% CO2. At the time point in which the cells became confluent, 1 μM Vemurafenib, a BRaf inhibitor, was added to the medium, and the cells were then cultured in the presence of Vemurafenib for 1 month or more (during which the medium was exchanged every 1 week), so as to acquire Vemurafenib-resistant malignant melanoma cells A375R and HT 144R. The resulting resistant cells were suspended in a medium containing 10% FBS, and then seeded on a 96-well plate to an amount of 1 to 2×10^4 cells/well. The cells were cultured at 37° C. in the presence of 5% CO2 overnight. Thereafter, the medium was exchanged with a medium containing 0.5% FBS, to which each compound solution (final DMSO concentration: 1%) and 1 μM Vemurafenib had been added, and the cells were then cultured at 37° C. in the presence of 5% CO2 for 72 hours.
(§2) Thereafter, the number of viable cells was measured using Cell Counting Reagent (Nacalai Tesque) in accordance with the manufacturer's instructions. Inhibition by the test compound was determined according to the following equation: […]
(§3) Hereafter, Inhibition (%) by 3.3 μM compound is shown.

Test [3] deals with Vemurafenib-resistant malignant melanoma cells A375R (BRafV600E). As to the kind of experiment: Cell growth inhibition, drug-resistant malignant melanoma A375R. Format: cell-based. The following applies: Homo sapiens, in the presence of 1 μM PLX (Vemurafenib), 72 hours. Here is the method:
as §1, §2, §3

Test [4] has as its target GTPγS-bound human HRasG12V / human c-Raf-1 Ras binding domain (RBD) (Homo sapiens (Human), UniProt P01112, G12V). The test can be described thus: Ras-Raf binding inhibition ELISA. Particulars: anti-HRas antibody C-20; read-out: ELISA IC50 (μM): 1st Ab_C-20. Put shortly:
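GST-c-Raf-1 RBD (aa 50-131) immobilized on glutathione plates, then GTPγS-loaded full-length HRasG12V added with compound (final 10% DMSO), 1 h at 30 °C, pH 7.4 Tris buffer. Bound Ras detected by anti-HRas antibody (C-20 or 259) and HRP secondary, TMB read at OD450; IC50 from inhibition.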

Sequence of GTPγS-bound human HRasG12V / human c-Raf-1 Ras binding domain (RBD) (P01112 whole entry G12V, the tested form may be a part): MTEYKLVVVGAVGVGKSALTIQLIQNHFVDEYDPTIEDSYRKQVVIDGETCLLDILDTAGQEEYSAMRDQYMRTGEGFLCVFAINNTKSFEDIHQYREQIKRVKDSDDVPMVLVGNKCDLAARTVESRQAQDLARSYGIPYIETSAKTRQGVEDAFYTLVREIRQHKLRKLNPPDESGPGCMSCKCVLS

By inhibition is commonly meant the drop in the measured response relative to a control, in per cent. As a reminder, the IC50 is the concentration at which inhibition is half-maximal. As to `CC(=O)N1/C(=C\c2nc3cc(C(=O)N4CCOCC4)ccc3s2)C(=O)c2ccccc21` [Example 47, (Z)-1-acetyl-2-((5-(morpholine-4-carbonyl)benzo [d]thiazol-2-yl)-methylene)-indolin-3-one], the inhibition at 1 µM in test [1] came out at 74%. In addition, the inhibition at 3.3 µM came to 92% in test [2] and 90% in test [3]. Besides, the IC50 in test [4] is 3.9 µM.

Values taken from patent US20250091994A1, “RAS/RAF BINDING INHIBITOR COMPOUND” (NATIONAL UNIVERSITY CORPORATION KOBE UNIVERSITY, priority 2021, published 2025).
